Active and inactive are the calls of the source.
Assays:
[1] = target: T1, Polyadenylate-binding protein 1 (Homo sapiens, UniProt P11940); test: MLLE binding blockers, Cy5 peptide tracer – biochemical, fluorescence polarization, Cy5-PAM2 peptide, secondary, miRNA deadenylation inhibitor project, dose response (AID 602260); type: functional; details: read-out: IC50_Mean
[2] = target: T2, Histone-lysine N-methyltransferase NSD2 (Homo sapiens, UniProt O96028); type: biochemical
T2 sequence (O96028 whole entry): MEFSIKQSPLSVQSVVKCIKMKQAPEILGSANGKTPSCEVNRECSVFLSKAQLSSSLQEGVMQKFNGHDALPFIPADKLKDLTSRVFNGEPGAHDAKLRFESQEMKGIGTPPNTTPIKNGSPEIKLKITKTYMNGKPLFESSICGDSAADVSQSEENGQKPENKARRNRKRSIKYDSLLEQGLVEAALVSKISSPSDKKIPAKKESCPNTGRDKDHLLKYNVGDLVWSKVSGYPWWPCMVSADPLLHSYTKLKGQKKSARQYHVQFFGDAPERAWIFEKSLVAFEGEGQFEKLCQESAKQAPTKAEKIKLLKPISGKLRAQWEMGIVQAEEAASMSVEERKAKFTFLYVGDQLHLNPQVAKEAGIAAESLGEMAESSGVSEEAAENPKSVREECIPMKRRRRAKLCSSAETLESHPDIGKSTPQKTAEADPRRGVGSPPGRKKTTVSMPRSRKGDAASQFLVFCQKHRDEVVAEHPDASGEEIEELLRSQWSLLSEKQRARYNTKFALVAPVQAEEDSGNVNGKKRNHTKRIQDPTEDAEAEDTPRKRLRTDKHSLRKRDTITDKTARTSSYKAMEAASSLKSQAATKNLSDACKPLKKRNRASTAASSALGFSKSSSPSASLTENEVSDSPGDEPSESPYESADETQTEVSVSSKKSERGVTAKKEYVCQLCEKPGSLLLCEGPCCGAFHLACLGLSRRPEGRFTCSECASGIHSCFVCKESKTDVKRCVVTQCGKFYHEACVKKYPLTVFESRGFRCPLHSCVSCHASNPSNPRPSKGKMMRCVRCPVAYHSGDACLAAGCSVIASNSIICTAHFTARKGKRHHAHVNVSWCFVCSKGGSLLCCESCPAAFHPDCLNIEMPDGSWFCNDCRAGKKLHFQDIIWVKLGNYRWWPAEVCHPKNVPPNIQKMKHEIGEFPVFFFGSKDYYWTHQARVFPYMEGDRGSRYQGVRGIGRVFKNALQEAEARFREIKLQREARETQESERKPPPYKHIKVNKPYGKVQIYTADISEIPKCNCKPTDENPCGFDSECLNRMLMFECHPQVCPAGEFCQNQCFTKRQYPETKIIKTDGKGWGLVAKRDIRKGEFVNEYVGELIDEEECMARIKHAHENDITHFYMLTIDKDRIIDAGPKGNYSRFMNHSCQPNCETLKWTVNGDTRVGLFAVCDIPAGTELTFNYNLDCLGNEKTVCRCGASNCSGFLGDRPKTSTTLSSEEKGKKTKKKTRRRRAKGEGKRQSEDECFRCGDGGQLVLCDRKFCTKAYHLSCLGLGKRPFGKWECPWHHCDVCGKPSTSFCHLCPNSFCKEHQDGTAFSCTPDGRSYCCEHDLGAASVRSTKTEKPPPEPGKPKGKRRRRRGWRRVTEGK

[3] = target: T1, Polyadenylate-binding protein 1; test: MLLE domain peptide-binding blockers, IC50 – biochemical, fluorescence polarization, FITC-PAM2 peptide, dose response (AID 602259); type: functional; details: read-out: IC50_Mean
[4] = target: Small ubiquitin-related modifier 1 (Homo sapiens, UniProt P63165); test: SUMO1 protein-protein binding blockers, potency – biochemical, FRET, dose response (AID 624383); type: functional; details: read-out: IC50_Mean
Sequence of Small ubiquitin-related modifier 1 (P63165 whole entry): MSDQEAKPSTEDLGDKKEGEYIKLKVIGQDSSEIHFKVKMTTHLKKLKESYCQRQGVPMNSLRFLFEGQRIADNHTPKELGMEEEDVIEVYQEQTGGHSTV

[5] = target: Tyrosine-protein phosphatase non-receptor type 5 (Homo sapiens, UniProt P54829); test: PTPN5 enzyme inhibition – biochemical, fluorescence intensity, uHTS hits, confirmation (AID 602372); type: functional; details: read-out: IC50_Mean
Sequence of Tyrosine-protein phosphatase non-receptor type 5 (P54829 whole entry): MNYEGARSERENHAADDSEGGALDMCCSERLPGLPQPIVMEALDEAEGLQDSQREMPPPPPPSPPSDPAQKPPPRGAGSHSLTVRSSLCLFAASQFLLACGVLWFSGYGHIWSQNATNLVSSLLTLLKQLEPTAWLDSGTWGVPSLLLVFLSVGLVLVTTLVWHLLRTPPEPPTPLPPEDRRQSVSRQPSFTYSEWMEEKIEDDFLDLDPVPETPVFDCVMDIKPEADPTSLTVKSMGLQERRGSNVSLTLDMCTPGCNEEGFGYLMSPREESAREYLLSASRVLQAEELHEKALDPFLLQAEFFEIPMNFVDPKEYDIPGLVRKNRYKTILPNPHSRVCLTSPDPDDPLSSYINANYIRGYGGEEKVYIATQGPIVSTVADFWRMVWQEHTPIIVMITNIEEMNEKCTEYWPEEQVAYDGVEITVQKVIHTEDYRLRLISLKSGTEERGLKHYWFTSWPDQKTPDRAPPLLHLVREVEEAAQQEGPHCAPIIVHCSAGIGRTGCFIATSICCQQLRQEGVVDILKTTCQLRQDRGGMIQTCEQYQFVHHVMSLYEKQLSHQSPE

[6] = Trypanosoma cruzi growth suppression in host cells – NIH3T3 host cells, beta-gal luminescence, confirmation (AID 2044); type: functional, cell-based;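 also: intracellular parasites grown in NIH/3T3 mouse fibroblasts as host cells; luminescent beta-galactosidase reporter signal from transgenic T. cruzi replicating inside host cells; inhibitors lower the luminescence signal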
[7] = target: Delta-type opioid receptor (Homo sapiens, UniProt P41143); test: HTS Image-Based Screen for Antagonists of the DOR Receptor. [Related pubchem assays (depositor defined):AID1777, AID1785, AID1786, AID2133]; type: functional;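 also: U2OS cells expressing DOR stimulated with 100 nM SNC80 agonist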
Sequence of Delta-type opioid receptor (P41143 whole entry): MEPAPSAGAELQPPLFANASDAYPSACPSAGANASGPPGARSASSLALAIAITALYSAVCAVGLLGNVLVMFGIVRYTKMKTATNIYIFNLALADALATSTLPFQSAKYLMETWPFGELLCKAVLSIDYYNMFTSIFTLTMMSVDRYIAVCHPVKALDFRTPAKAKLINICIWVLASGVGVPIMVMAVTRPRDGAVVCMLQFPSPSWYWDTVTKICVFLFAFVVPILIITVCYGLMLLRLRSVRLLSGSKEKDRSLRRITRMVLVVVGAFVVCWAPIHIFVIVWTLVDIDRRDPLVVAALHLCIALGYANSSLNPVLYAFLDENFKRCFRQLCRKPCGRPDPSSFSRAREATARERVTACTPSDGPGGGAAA

[8] = target: Kappa-type opioid receptor (Homo sapiens, UniProt P41145); type: functional
Sequence of Kappa-type opioid receptor (P41145 whole entry): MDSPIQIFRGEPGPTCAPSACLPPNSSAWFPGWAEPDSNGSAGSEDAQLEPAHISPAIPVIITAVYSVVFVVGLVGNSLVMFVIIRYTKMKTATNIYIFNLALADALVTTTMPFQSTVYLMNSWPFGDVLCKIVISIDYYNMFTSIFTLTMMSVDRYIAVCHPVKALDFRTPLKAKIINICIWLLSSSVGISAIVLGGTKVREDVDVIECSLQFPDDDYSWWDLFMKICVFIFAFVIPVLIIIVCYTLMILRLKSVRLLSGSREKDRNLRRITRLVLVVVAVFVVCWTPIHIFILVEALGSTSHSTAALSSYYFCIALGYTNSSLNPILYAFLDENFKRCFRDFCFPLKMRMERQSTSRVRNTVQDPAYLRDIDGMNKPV

[9] = target: T3, High affinity choline transporter 1 (Homo sapiens, UniProt Q9GZV3); test: human choline transporter blockers, potency – cell-based, 5-point CRC, membrane potential dye, dose response (AID 504840); type: functional
T3 sequence (Q9GZV3 whole entry): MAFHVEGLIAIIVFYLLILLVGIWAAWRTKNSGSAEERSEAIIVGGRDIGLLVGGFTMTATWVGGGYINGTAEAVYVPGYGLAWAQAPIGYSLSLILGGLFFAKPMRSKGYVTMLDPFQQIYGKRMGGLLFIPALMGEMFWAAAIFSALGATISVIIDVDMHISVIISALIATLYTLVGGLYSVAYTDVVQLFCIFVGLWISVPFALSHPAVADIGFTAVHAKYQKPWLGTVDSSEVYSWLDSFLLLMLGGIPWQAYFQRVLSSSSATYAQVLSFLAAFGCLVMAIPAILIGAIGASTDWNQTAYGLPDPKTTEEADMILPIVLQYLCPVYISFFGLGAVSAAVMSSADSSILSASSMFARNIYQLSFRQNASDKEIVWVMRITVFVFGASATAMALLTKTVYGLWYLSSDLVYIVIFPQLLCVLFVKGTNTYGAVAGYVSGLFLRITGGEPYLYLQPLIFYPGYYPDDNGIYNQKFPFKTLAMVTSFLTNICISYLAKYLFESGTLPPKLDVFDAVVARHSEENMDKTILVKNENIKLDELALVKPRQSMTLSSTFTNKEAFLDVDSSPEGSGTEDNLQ

T1 sequence (P11940 whole entry): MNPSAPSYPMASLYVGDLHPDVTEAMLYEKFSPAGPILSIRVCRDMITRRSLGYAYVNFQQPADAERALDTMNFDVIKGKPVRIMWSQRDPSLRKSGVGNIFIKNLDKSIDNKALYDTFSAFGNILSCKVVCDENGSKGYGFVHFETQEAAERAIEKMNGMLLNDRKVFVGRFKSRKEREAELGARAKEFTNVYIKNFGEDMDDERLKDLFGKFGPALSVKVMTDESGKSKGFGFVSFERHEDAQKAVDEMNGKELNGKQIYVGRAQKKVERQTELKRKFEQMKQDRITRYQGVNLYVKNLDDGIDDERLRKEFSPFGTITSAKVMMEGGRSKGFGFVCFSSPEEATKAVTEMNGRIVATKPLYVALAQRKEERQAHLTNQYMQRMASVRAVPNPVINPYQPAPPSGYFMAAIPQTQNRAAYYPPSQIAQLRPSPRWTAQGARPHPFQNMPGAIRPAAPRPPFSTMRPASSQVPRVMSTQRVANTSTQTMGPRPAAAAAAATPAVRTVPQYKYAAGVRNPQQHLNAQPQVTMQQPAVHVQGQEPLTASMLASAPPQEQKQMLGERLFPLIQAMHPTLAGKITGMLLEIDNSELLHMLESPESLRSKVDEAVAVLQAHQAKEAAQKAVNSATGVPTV

Structure (SMILES)	IC50 [1]	AC50 [2]	IC50 [3]	IC50 [4]	IC50 [5]	EC50 [6]	IC50 [7]	IC50 [8] [µM]	IC50 [9]
O=S(=O)(O)c1cc(O)c2cc(Nc3ccccc3)ccc2c1	> 66 µM (inactive)	1.8 µM (active)	> 66 µM (inactive)	4.47 µM (active)	6.49 µM (active)	–	–	–	–
O=[N+]([O-])c1c(Nc2ccccc2O)cc(Cl)c2nonc12	–	–	–	–	–	1.79 µM (active)	14.7 µM (inactive)	11.5	13.2 µM (active)
